Where no end group is shown, it is not given here.
Legend:
[1] = background; cited from earlier work
[2] = background; geldanamycin Phase I clinical trials; cited from earlier work
beta-COP = assay: Binding of beta-COP from mouse brain extract to Sulfolink-peptide affinity matrix, western analysis; details: FIG. 1B; for amount of beta-COP binding the peptide matrix: western with antibody to beta-COP; for amount of beta-COP bound by the di-serine control relative to the parent di-lysine peptide matrix: western, 672 BC1 vs OTOF CTERM E47, 670 CC1 vs OTOF CTERM E48
Procedure: Antibody to beta-COP was obtained from Oncogene Research Products (EMD Biosciences, Ind.) (Product No. PC175) and used at a 1:1500 dilution. Antibody to mouse Hsp90α was obtained from Stressgen (Victoria, Canada), Product No. SPS-771 and used at a 1:1000 dilution.
(§1) Sulfolink-peptide affinity columns were synthesized using the Sulpholink Kit (Pierce Biotechnology, Inc., Rockford, Ill., Product No. 44895) according to their protocol. Peptides were stored at 4° C. in a lyophilized state in a sealed desiccator. Approximately 2 mg of peptide is weighed and suspended in 0.4 ml of DMSO. This peptide solution is immediately diluted into 2 ml of coupling buffer and mixed (100 μl is removed for quantization) then added to 4 ml of a 50% slurry of Sulfolink gel equilibrated in coupling buffer in a small plastic column. The combination is mixed for 15 minutes at room temperature by rotation. The mixture is further incubated for 30 minutes at room temperature without mixing. The column is washed with coupling buffer, then blocked with freshly made 0.5 M cysteine, further washed with a Wash buffer. The peptide affinity matrix was removed from the column to a 50 ml conical tube and stored as a 50% slurry in PBS containing 0.05% sodium azide at 4° C.
Total mouse brain from deeply anthesized adult mice is excised and flash frozen in liquid nitrogen and stored at −80° C. The frozen brain is pulverized in a mortar and pestle under liquid nitrogen and suspended in TNGD (TRIS 50 mM pH7.5, NaCl 75 mM, EGTA 10 mM, EDTA 2 mM) with protease inhibitors (10 μl/ml of protease inhibitor cocktail for mammalian cells, Sigma Chemical Co. No. P8340) at 1 ml/100 mg of tissue. This mixture is homogenized in a Potter-Elvehjem Teflon glass homogenizer on ice. The homogenate is centrifuged for 10 minutes at 4° C. in an IEC minifuge at 13,200 RPM. The pellet is discarded. The supernatant is used immediately or frozen and stored at −80° C.
All steps of protein purification were done at 4° C. in a Handee Spin Cup Column (Pierce Biotechnology, Inc., Rockford, Ill., Product No. 69700) in the presence of protease inibitor (10 μl/ml of protease inhibitor cocktail for mammalian cells, Sigma Chemical Co. No. P8340). Fifty μl of a 50% slurry of Sulfolink-peptide was washed five times with 0.4 ml of TNGD. Mouse brain extract supernatant (100 μl) was allowed to absorb to the gel by mixing by rotation for 30 minutes. Following absorption the gel is washed five times with 0.4 ml TNGD. Specific elution is described in the results.
Protein samples are made 1× with ImmunoPure Lane Marker Non-Reducing Sample Buffer (5×) (Pierce Biotechnology) and heated for 5 minutes at 95° C. Samples are separated on a 4-20% Linear Gradient Ready Gel (BIO-RAD Laboratories, Hercules, Calif., Product No. 161-1105). Polyacrylamide gels are stained with BIORAD Silver Stain Plus Kit (No. 161-0449) or Bio-Safe Coomassie Stain or electro-blotted to PVDF membrane (BIO-RAD) for Western blot analysis, according to directions provided by the manufacturer. Specific antibody binding is detected using ECL Western Blotting System (Amersham Biosciences Corp., Piscataway, N.J., Product No. RPN2108). Molecular weight standards used were the BIO-RAD Precision Protein Standards, Prestained, Broad Range (Product No. 161-0372). Chemiluminecence is detected using Kodak Biomax ML Scientific Imaging Film (Product No. 868-9358).
Mouse brain extracts were absorbed to the four peptide matrix columns as described in the methods. Column matrix was transferred to PCR tubes and made 1× with SDS buffer and heated for 5 minutes at 95° C. After heating the samples were centrifuged for 1 minute at 300×g and the supernatant separated by SDS gel electrophoresis on two separate gels.

recombinant human Hsp90α = molecular target: T1, recombinant human Hsp90α (Homo sapiens, UniProt P07900); assay: Binding of purified recombinant human Hsp90α to peptide affinity columns, 600 mM NaCl elution, silver stain; details: for binding of Hsp90α to the peptide affinity column: 400 ng recombinant human Hsp90α, BSA-preabsorbed column, 4° C., silver stain, FIG. 5; for protein corresponding to Hsp90 molecular weight eluted with 600 mM NaCl, share of protein added: scan of silver stained gel, elution with TNGD + 600 mM NaCl
T1 construct: purchased Stressgen SPP-776
Procedure: Fifty μl of 50% slurry of OTOF CTERM E47 and OTOF CTERM E48 Sulfolink affinity matrix were equilibrated with four washes of 0.4 ml of TNGD buffer in Handee Spin Cup Columns (Pierce, Rockford). The columns was preabsorbed with 100 μl of 10% BSA for 30 minutes at 4° C. and mixed by rotation. The columns were then washed five times with 0.4 ml of TNGD. Four hundred (400) ng of recombinant human Hsp90α (Stressgen SPP-776, Lot No. B201401) in 100 μl of TNGD was added to each column for 30 minutes at 4° C. and mixed by rotation. The unabsorbed protein was removed by centrifugation. The columns were washed five times with 0.4 ml of TNGD, then eluted with 100 μl TNGD+600 mM NaCl. Samples were analyzed on a 4-20% SDS-PAGE gel followed by silver staining using a BIORAD Silver Stain Plus kit (No. 161-0449) as show in FIG. 5. […] The amount of protein added and eluted was determined by scanning the silver stained gel using a Alpha Imager 2200 gel imaging system.

Hsp90α (p97, HS9A_MOUSE) = molecular target: T2, Hsp90α (p97, HS9A_MOUSE) (Mus musculus, UniProt P07901); assay: Binding of mouse brain extract protein p97 (identified as Hsp90α) to Sulfolink-peptide affinity matrix, SDS-PAGE Coomassie stain; details: Coomassie stained gel, FIG. 1A
T2 construct: Total mouse brain from deeply anthesized adult mice is excised and flash frozen in liquid nitrogen; from tissue; host or cells: adult mouse brain, 13,200 rpm supernatant of homogenate
Procedure: as §1, with “The peptide affinity matrix was removed from the column to a 50 ml conical tube and stored as a 50% slurry in PBS containing 0.05% sodium azide at 4° C.” left out
Protein samples are made 1× with ImmunoPure Lane Marker Non-Reducing Sample Buffer (5×) (Pierce Biotechnology) and heated for 5 minutes at 95° C. Samples are separated on a 4-20% Linear Gradient Ready Gel (BIO-RAD Laboratories, Hercules, Calif., Product No. 161-1105). […] Specific antibody binding is detected using ECL Western Blotting System (Amersham Biosciences Corp., Piscataway, N.J., Product No. RPN2108). […] Chemiluminecence is detected using Kodak Biomax ML Scientific Imaging Film (Product No. 868-9358). […]

Row | Compound | water / aqueous solubility [1] | hepatotoxicity [2] | amount of beta-COP binding the peptide matrix (beta-COP) | binding of Hsp90α to the peptide affinity column (recombinant human Hsp90α) | protein corresponding to Hsp90 molecular weight eluted with 600 mM NaCl, share of protein added (recombinant human Hsp90α) | amount of beta-COP bound by the di-serine control relative to the parent di-lysine peptide matrix (beta-COP) | other results
1 | C=CCNC1=C2C[C@@H](C)C[C@H](OC)[C@H](O)[C@@H](C)/C=C(\C)[C@H](OC(N)=O)[C@@H](OC)/C=C\C=C(/C)C(=O)NC(=CC1=O)C2=O [Peptide 17-AAG, 17-(allylamino)-17-desmethoxygeldanamycin] | limited aqueous solubility | reduced hepatotoxicity | – | – | – | – | –
2 | COC1=C2C[C@@H](C)C[C@H](OC)[C@H](O)[C@@H](C)/C=C(\C)[C@H](OC(N)=O)[C@@H](OC)/C=C\C=C(/C)C(=O)NC(=CC1=O)C2=O [geldanamycin] | poor water solubility | hepatotoxicity | – | – | – | – | –
3 | CYSLPGYLAKKILGA (also: coupled to Sulfolink matrix) [OTOF CTERM E47, C-terminus 14 amino acids of the brain otoferlin isoform with added N-terminal cysteine, coupled to Sulfolink matrix] | – | – | similar | does not bind | no eluted protein was detected | – | amount of beta-COP binding the peptide matrix (beta-COP; listed as E47): specific binding
4 | CYSLPGYLASSILGA (peptide corresponding to the C-terminus of an otoferlin isoform with di-lysine replaced by di-serine) [672 BC1, E47 peptide control with the di-lysine replaced with di-serine, reference compound] | – | – | – | – | – | about half | –
5 | CYSLPGYMVKKLLGA (also: coupled to Sulfolink matrix) [OTOF CTERM E48, C-terminus 14 amino acids of the cochlear otoferlin isoform with added N-terminal cysteine, coupled to Sulfolink matrix] | – | – | similar | specifically binds | Approximately 10% | – | binding of a protein at approximately 97 kilo-daltons (p97, Hsp90α) to the peptide matrix (Hsp90α (p97, HS9A_MOUSE)): higher levels; binding of a protein at approximately 97 kilo-daltons (p97, Hsp90α) to the peptide matrix (Hsp90α (p97, HS9A_MOUSE); listed as E48): specific binding; amount of beta-COP binding the peptide matrix (beta-COP; listed as E48): specific binding
6 | CYSLPGYMVSSLLGA (peptide corresponding to the C-terminus of an otoferlin isoform with di-lysine replaced by di-serine) [670 CC1, E48 peptide control with the di-lysine replaced with di-serine, reference compound] | – | – | – | – | – | about a tenth | –

From patent US7491701B2, “Peptides that bind to HSP90 proteins” (Boys Town National Research Hospital, priority 2004, dated 2009)
